In patent US20230111310A1, “CARBOXYLIC ACID DERIVATIVE-SUBSTITUTED IMINO ARYL COMPOUND, PREPARATION METHOD THEREFOR, HERBICIDAL COMPOSITION AND USE THEREOF” (Qingdao Kingagroot Chemical Compound Co., Ltd., priority 2020, published 2023):

Legend:
Test in all cases: Weeding effect in post-emergence stage
Type in all cases: in vivo
Abutilon theophrasti = conditions: for Weeding effect in post-emergence stage, Abutilon theophrasti: level of fresh weight growth control rate; for Weeding effect in post-emergence stage, Abutilon theophrasti (level): fresh weight control rate level
Method in brief: (§1)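 Doses of 500, 250, 125, 60, 30, 15 and 7.5 g/ha, with methyl oleate synergist (1.5 liter/ha) and Tween 80 from acetone solution, applied by spray tower post-emergence (2–3 leaf stage). Weed control scored after 3 further greenhouse weeks, averaged over triplicates.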

Alopecurus japonicus = conditions: for Weeding effect in post-emergence stage, Alopecurus japonicus: level of fresh weight growth control rate; for Weeding effect in post-emergence stage, Alopecurus japonicus (level): fresh weight control rate level
Method in brief: as §1

Digitaria sanguinalis = conditions: for Weeding effect in post-emergence stage, Digitaria sanguinalis: level of fresh weight growth control rate; for Weeding effect in post-emergence stage, Digitaria sanguinalis (level): fresh weight control rate level
Method in brief: as §1

Eleusine indica = conditions: for Weeding effect in post-emergence stage, Eleusine indica: level of fresh weight growth control rate; for Weeding effect in post-emergence stage, Eleusine indica (level): fresh weight control rate level
Method in brief: as §1

Setaria viridis = conditions: for Weeding effect in post-emergence stage, Setaria viridis: level of fresh weight growth control rate; for Weeding effect in post-emergence stage, Setaria viridis (level): fresh weight control rate level
Method in brief: as §1

Echinochloa crusgalli = conditions: for Weeding effect in post-emergence stage, Echinochloa crusgalli: level of fresh weight growth control rate; for Weeding effect in post-emergence stage, Echinochloa crusgalli (level): fresh weight control rate level
Method in brief: as §1

## C[C@@H](O/N=C/c1cc(-n2c(=O)cc(C(F)(F)F)n(C)c2=O)c(F)cc1Cl)C(=O)OCCO [228(R)]
Abutilon theophrasti; Dose 15 g/ha
  Weeding effect in post-emergence stage, Abutilon theophrasti: 5 (Level 5: growth control rate is above 85%)
Alopecurus japonicus; Dose 15 g/ha
  Weeding effect in post-emergence stage, Alopecurus japonicus: 5 (Level 5: growth control rate is above 85%)
Digitaria sanguinalis; Dose 15 g/ha
  Weeding effect in post-emergence stage, Digitaria sanguinalis: 5 (Level 5: growth control rate is above 85%)
Eleusine indica; Dose 15 g/ha
  Weeding effect in post-emergence stage, Eleusine indica: 5 (Level 5: growth control rate is above 85%)
Setaria viridis; Dose 15 g/ha
  Weeding effect in post-emergence stage, Setaria viridis: 5 (Level 5: growth control rate is above 85%)
Echinochloa crusgalli; Dose 15 g/ha
  Weeding effect in post-emergence stage, Echinochloa crusgalli: 5 (Level 5: growth control rate is above 85%)

## C[C@@H](O/N=C/c1cc(-n2c(=O)n(C)c(=S)n(C)c2=O)c(F)cc1Cl)C(=O)OCc1cccnc1 [59(R)]
Abutilon theophrasti; Dose 15 g/ha
  Weeding effect in post-emergence stage, Abutilon theophrasti: 5 (Level 5: growth control rate is above 85%)
Alopecurus japonicus; Dose 15 g/ha
  Weeding effect in post-emergence stage, Alopecurus japonicus: 4 (Level 4: growth control rate is greater than or equal to 60% and less than 85%)
Digitaria sanguinalis; Dose 15 g/ha
  Weeding effect in post-emergence stage, Digitaria sanguinalis: 5 (Level 5: growth control rate is above 85%)
Eleusine indica; Dose 15 g/ha
  Weeding effect in post-emergence stage, Eleusine indica: 5 (Level 5: growth control rate is above 85%)
Setaria viridis; Dose 15 g/ha
  Weeding effect in post-emergence stage, Setaria viridis: 5 (Level 5: growth control rate is above 85%)
Echinochloa crusgalli; Dose 15 g/ha
  Weeding effect in post-emergence stage, Echinochloa crusgalli: 5 (Level 5: growth control rate is above 85%)

## CC(O/N=C/c1cc(-n2c(=O)n(C)c(=S)n(C)c2=O)c(F)cc1Cl)C(=O)OCC1CCCO1 (stereo not drawn) [Compound 24]
Abutilon theophrasti; Dose 15 g/ha
  Weeding effect in post-emergence stage, Abutilon theophrasti: 5 (Level 5: growth control rate is above 85%)
Alopecurus japonicus; Dose 15 g/ha
  Weeding effect in post-emergence stage, Alopecurus japonicus: 5 (Level 5: growth control rate is above 85%)
Digitaria sanguinalis; Dose 15 g/ha
  Weeding effect in post-emergence stage, Digitaria sanguinalis: 5 (Level 5: growth control rate is above 85%)
Eleusine indica; Dose 15 g/ha
  Weeding effect in post-emergence stage, Eleusine indica: 5 (Level 5: growth control rate is above 85%)
Setaria viridis; Dose 15 g/ha
  Weeding effect in post-emergence stage, Setaria viridis: 5 (Level 5: growth control rate is above 85%)
Echinochloa crusgalli; Dose 15 g/ha
  Weeding effect in post-emergence stage, Echinochloa crusgalli: 5 (Level 5: growth control rate is above 85%)

## CCOC(=O)C(C)O/N=C/c1cc(-n2c(=O)cc(C(F)(F)F)n(C)c2=O)c(F)cc1Cl (racemic) [Compound 196]
Abutilon theophrasti; Dose 15 g/ha
  Weeding effect in post-emergence stage, Abutilon theophrasti: 5 (Level 5: growth control rate is above 85%)
Alopecurus japonicus; Dose 15 g/ha
  Weeding effect in post-emergence stage, Alopecurus japonicus: 5 (Level 5: growth control rate is above 85%)
Digitaria sanguinalis; Dose 15 g/ha
  Weeding effect in post-emergence stage, Digitaria sanguinalis: 5 (Level 5: growth control rate is above 85%)
Eleusine indica; Dose 15 g/ha
  Weeding effect in post-emergence stage, Eleusine indica: 5 (Level 5: growth control rate is above 85%)
Setaria viridis; Dose 15 g/ha
  Weeding effect in post-emergence stage, Setaria viridis: 5 (Level 5: growth control rate is above 85%)
Echinochloa crusgalli; Dose 15 g/ha
  Weeding effect in post-emergence stage, Echinochloa crusgalli: 5 (Level 5: growth control rate is above 85%)

## COC(=O)CCNC(=O)[C@@H](C)O/N=C/c1cc(-n2c(=O)n(C)c(=S)n(C)c2=O)c(F)cc1Cl [183(R)]
Abutilon theophrasti; Dose 15 g/ha
  Weeding effect in post-emergence stage, Abutilon theophrasti: 5 (Level 5: growth control rate is above 85%)
Alopecurus japonicus; Dose 15 g/ha
  Weeding effect in post-emergence stage, Alopecurus japonicus: 5 (Level 5: growth control rate is above 85%)
Digitaria sanguinalis; Dose 15 g/ha
  Weeding effect in post-emergence stage, Digitaria sanguinalis: 5 (Level 5: growth control rate is above 85%)
Eleusine indica; Dose 15 g/ha
  Weeding effect in post-emergence stage, Eleusine indica: 5 (Level 5: growth control rate is above 85%)
Setaria viridis; Dose 15 g/ha
  Weeding effect in post-emergence stage, Setaria viridis: 5 (Level 5: growth control rate is above 85%)
Echinochloa crusgalli; Dose 15 g/ha
  Weeding effect in post-emergence stage, Echinochloa crusgalli: 5 (Level 5: growth control rate is above 85%)

## COC(=O)C(C)NN=Cc1cc(-n2c(=O)cc(C(F)(F)F)n(C)c2=O)c(F)cc1Cl (stereo not drawn) [Compound 919]
Abutilon theophrasti; Dose 30 g/ha
  Weeding effect in post-emergence stage, Abutilon theophrasti (level): 5 (Level 5: growth control rate is above 85%)
Alopecurus japonicus; Dose 30 g/ha
  Weeding effect in post-emergence stage, Alopecurus japonicus (level): 5 (Level 5: growth control rate is above 85%)
Digitaria sanguinalis; Dose 30 g/ha
  Weeding effect in post-emergence stage, Digitaria sanguinalis (level): 5 (Level 5: growth control rate is above 85%)
Eleusine indica; Dose 30 g/ha
  Weeding effect in post-emergence stage, Eleusine indica (level): 5 (Level 5: growth control rate is above 85%)
Setaria viridis; Dose 30 g/ha
  Weeding effect in post-emergence stage, Setaria viridis (level): 5 (Level 5: growth control rate is above 85%)
Echinochloa crusgalli; Dose 30 g/ha
  Weeding effect in post-emergence stage, Echinochloa crusgalli (level): 5 (Level 5: growth control rate is above 85%)

## COC(=O)C(C)O/N=C/c1cc(-n2c(=O)c(Cl)c(C(F)(F)F)n(C)c2=O)c(F)cc1Cl (stereo not drawn) [Compound 431]
Abutilon theophrasti; Dose 15 g/ha
  Weeding effect in post-emergence stage, Abutilon theophrasti (level): 5 (Level 5: growth control rate is above 85%)
Alopecurus japonicus; Dose 15 g/ha
  Weeding effect in post-emergence stage, Alopecurus japonicus (level): 5 (Level 5: growth control rate is above 85%)
Digitaria sanguinalis; Dose 15 g/ha
  Weeding effect in post-emergence stage, Digitaria sanguinalis (level): 5 (Level 5: growth control rate is above 85%)
Eleusine indica; Dose 15 g/ha
  Weeding effect in post-emergence stage, Eleusine indica (level): 5 (Level 5: growth control rate is above 85%)
Setaria viridis; Dose 15 g/ha
  Weeding effect in post-emergence stage, Setaria viridis (level): 5 (Level 5: growth control rate is above 85%)
Echinochloa crusgalli; Dose 15 g/ha
  Weeding effect in post-emergence stage, Echinochloa crusgalli (level): 5 (Level 5: growth control rate is above 85%)

## CC(O/N=C/c1cc(-n2c(=O)cc(C(F)(F)F)n(C)c2=O)c(F)cc1Cl)C(=O)OCc1cccc(F)c1 (stereo not drawn) [Compound 285]
Abutilon theophrasti; Dose 30 g/ha
  Weeding effect in post-emergence stage, Abutilon theophrasti: 5 (Level 5: growth control rate is above 85%)
Alopecurus japonicus; Dose 30 g/ha
  Weeding effect in post-emergence stage, Alopecurus japonicus: 5 (Level 5: growth control rate is above 85%)
Digitaria sanguinalis; Dose 30 g/ha
  Weeding effect in post-emergence stage, Digitaria sanguinalis: 5 (Level 5: growth control rate is above 85%)
Eleusine indica; Dose 30 g/ha
  Weeding effect in post-emergence stage, Eleusine indica: 5 (Level 5: growth control rate is above 85%)
Setaria viridis; Dose 30 g/ha
  Weeding effect in post-emergence stage, Setaria viridis: 5 (Level 5: growth control rate is above 85%)
Echinochloa crusgalli; Dose 30 g/ha
  Weeding effect in post-emergence stage, Echinochloa crusgalli: 5 (Level 5: growth control rate is above 85%)
